Laboratory results published in US9006451B1, “2-anilinonicotinyl based chalcones useful as potential anticancer agents and process for preparation thereof” (Council of Scientific and Industrial Research, priority 2013, dated 2015).
Read-outs that look alike come from different tables or passages of the source.

What was measured:
Type in all cases: cell-based
A549/ATCC = assay: NCI 60 human tumor cell line screen (SRB): A549/ATCC; conditions: Non-small cell lung, 48 hours, read-out: GI50 values (μM conc.)
Protocol: (§1) The in vitro anticancer activity studies for these chalcone analogues were carried out at the National Cancer Institute, USA.
(§2) The chalcone compounds have been tested at NCI, USA, against sixty human tumor cell lines derived from nine cancer types (leukemia, non-small cell lung cancer, colon cancer, CNS cancer, melanoma cancer, ovarian cancer, renal cancer, prostate cancer and breast cancer). For these compounds results are expressed as growth inhibition (GI50) values as per NCI protocol.
(§3) We describe here the development and implementation of a pilot-scale, in vitro, anticancer drug screen utilizing a panel of 60 human tumor cell lines organized into subpanels representing leukemia, melanoma, and cancers of the lung, colon, kidney, ovary, and central nervous system. The ultimate goal of this disease-oriented screen is to facilitate the discovery of new compounds with potential cell line-specific and/or subpanel-specific antitumor activity. In the current screening protocol, each cell line is inoculated onto microtiter plates, then preincubated for 28 hours. Subsequently, test agents are added in five 10-fold dilutions and the culture is incubated for an additional 48 hours. For each test agent, a dose-response profile is generated. End-point determinations of the cell viability or cell growth are performed by in situ fixation of cells, followed by staining with a protein-binding dye, sulforhodamine B (SRB). The SRB binds to the basic amino acids of cellular macromolecules; the solubilized stain is measured spectrophotometrically to determine relative cell growth or viability in treated and untreated cells.

TK-10 = assay: NCI 60 human tumor cell line screen (SRB): TK-10; conditions: TK-10, Renal, 48 hours, read-out: GI50 values (μM conc.)
Protocol: as §1, §2, §3

PC-3 = assay: NCI 60 human tumor cell line screen (SRB): PC-3; conditions: PC-3, Prostate, 48 hours, read-out: GI50 values (μM conc.)
Protocol: as §1, §2, §3

BT-549 = assay: NCI 60 human tumor cell line screen (SRB): BT-549; conditions: BT-549, Breast, 48 hours, read-out: GI50 values (μM conc.)
Protocol: as §1, §2, §3

SK-OV-3 = assay: NCI 60 human tumor cell line screen (SRB): SK-OV-3; conditions: SK-OV-3, Ovarian, 48 hours, read-out: GI50 values (μM conc.)
Protocol: as §1, §2, §3

SK-MEL-2 = assay: NCI 60 human tumor cell line screen (SRB): SK-MEL-2; conditions: SK-MEL-2, Melanoma, 48 hours, read-out: GI50 values (μM conc.)
Protocol: as §1, §2, §3

CCRF-CEM = assay: NCI 60 human tumor cell line screen (SRB): CCRF-CEM; conditions: Leukemia, 48 hours, read-out: GI50 values (μM conc.)
Protocol: as §1, §2, §3

MCF7 = assay: NCI 60 human tumor cell line screen (SRB): MCF7
Protocol: as §1, §2, §3

SF-295 = assay: NCI 60 human tumor cell line screen (SRB): SF-295; conditions: SF-295, CNS, 48 hours, read-out: GI50 values (μM conc.)
Protocol: as §1, §2, §3

T-47D = assay: NCI 60 human tumor cell line screen (SRB): T-47D; conditions: T47D, Breast, 48 hours, read-out: GI50 values (μM conc.)
Protocol: as §1, §2, §3

LOX IMVI = assay: NCI 60 human tumor cell line screen (SRB): LOX IMVI; conditions: Melanoma, 48 hours, read-out: GI50 values (μM conc.)
Protocol: as §1, §2, §3

OVCAR-5 = assay: NCI 60 human tumor cell line screen (SRB): OVCAR-5; conditions: OVCAR-5, Ovarian, 48 hours, read-out: GI50 values (μM conc.)
Protocol: as §1, §2, §3

A498 = assay: NCI 60 human tumor cell line screen (SRB): A498; conditions: A498, Renal, 48 hours, read-out: GI50 values (μM conc.)
Protocol: as §1, §2, §3

UACC-62 = assay: NCI 60 human tumor cell line screen (SRB): UACC-62; conditions: UACC-62, Melanoma, 48 hours, read-out: GI50 values (μM conc.)
Protocol: as §1, §2, §3

NCI-H522 = assay: NCI 60 human tumor cell line screen (SRB): NCI-H522; conditions: NCI-H522, Non-small cell lung, 48 hours, read-out: GI50 values (μM conc.)
Protocol: as §1, §2, §3

MALME-3M = assay: NCI 60 human tumor cell line screen (SRB): MALME-3M; conditions: Melanoma, 48 hours, read-out: GI50 values (μM conc.)
Protocol: as §1, §2, §3

HS 578T = assay: NCI 60 human tumor cell line screen (SRB): HS 578T; conditions: Breast, 48 hours, read-out: GI50 values (μM conc.)
Protocol: as §1, §2, §3

U251 = assay: NCI 60 human tumor cell line screen (SRB): U251; conditions: U-251, U251, CNS, 48 hours, read-out: GI50 values (μM conc.)
Protocol: as §1, §2, §3

CAKI-1 = assay: NCI 60 human tumor cell line screen (SRB): CAKI-1; conditions: CAKI-1, Renal, 48 hours, read-out: GI50 values (μM conc.)
Protocol: as §1, §2, §3

SF-268 = assay: NCI 60 human tumor cell line screen (SRB): SF-268; conditions: SF-268, CNS, 48 hours, read-out: GI50 values (μM conc.)
Protocol: as §1, §2, §3

OVCAR-4 = assay: NCI 60 human tumor cell line screen (SRB): OVCAR-4; conditions: OVCAR-4, Ovarian, 48 hours, read-out: GI50 values (μM conc.)
Protocol: as §1, §2, §3

OVCAR-8 = assay: NCI 60 human tumor cell line screen (SRB): OVCAR-8; conditions: OVCAR-8, Ovarian, 48 hours, read-out: GI50 values (μM conc.)
Protocol: as §1, §2, §3

NCI-H460 = assay: NCI 60 human tumor cell line screen (SRB): NCI-H460; conditions: NCI-H460, Non-small cell lung, 48 hours, read-out: GI50 values (μM conc.)
Protocol: as §1, §2, §3

SN12C = assay: NCI 60 human tumor cell line screen (SRB): SN12C; conditions: Renal, 48 hours, read-out: GI50 values (μM conc.)
Protocol: as §1, §2, §3

UO-31 = assay: NCI 60 human tumor cell line screen (SRB): UO-31; conditions: UO-31, Renal, 48 hours, read-out: GI50 values (μM conc.)
Protocol: as §1, §2, §3

DU-145 = assay: NCI 60 human tumor cell line screen (SRB): DU-145; conditions: DU-145, Prostate, 48 hours, read-out: GI50 values (μM conc.)
Protocol: as §1, §2, §3

SK-MEL-5 = assay: NCI 60 human tumor cell line screen (SRB): SK-MEL-5; conditions: SK-MEL-5, Melanoma, 48 hours, read-out: GI50 values (μM conc.)
Protocol: as §1, §2, §3

HCT-15 = assay: NCI 60 human tumor cell line screen (SRB): HCT-15; conditions: HCT-15, Colon, 48 hours, read-out: GI50 values (μM conc.)
Protocol: as §1, §2, §3

SF-539 = assay: NCI 60 human tumor cell line screen (SRB): SF-539; conditions: SF-539, CNS, 48 hours, read-out: GI50 values (μM conc.)
Protocol: as §1, §2, §3

[1] = MCF7, Breast, 48 hours, SRB, read-out: GI50 values (μM conc.)
[2] = MCF7, comparison table, read-out: GI50 μM in MCF7

| SMILES | GI50 (PC-3) [µM] | GI50 (BT-549) [µM] | GI50 (SK-OV-3) [µM] | GI50 (SK-MEL-2) [µM] | GI50 (CCRF-CEM) [µM] | GI50 (MCF7; [1]) [µM] | GI50 (MCF7; [2]) [µM] | GI50 (SF-295) [µM] | GI50 (T-47D) [µM] | GI50 (LOX IMVI) [µM] | GI50 (OVCAR-5) [µM] | GI50 (A498) [µM] | GI50 (UACC-62) [µM] | GI50 (NCI-H522) [µM] | GI50 (MALME-3M) [µM] | GI50 (HS 578T) [µM] | GI50 (U251) [µM] | GI50 (CAKI-1) [µM] | GI50 (SF-268) [µM] | GI50 (OVCAR-4) [µM] | further results |
| --- | --- | --- | --- | --- | --- | --- | --- | --- | --- | --- | --- | --- | --- | --- | --- | --- | --- | --- | --- | --- | --- |
| COc1cc(C(=O)/C=C/c2cccnc2Nc2ccccc2)cc(OC)c1OC [6a, (E)-3-(2-(Phenylamino)pyridin-3-yl)-1-(3,4,5-trimethoxyphenyl)prop-2-en-1-one] | 1.1 | 1.26 | 1.6 | 1.66 | 0.32 | 0.35 | 0.35 | 1.87 | 1.43 | 0.49 | 1.54 | 1.42 | 1.29 | 0.49 | 1.92 | 2.15 | 1.12 | 1.16 | 1.55 | 1.45 | GI50 (A549/ATCC): 1.3 µM; GI50 (TK-10): 1.82 µM; GI50 (OVCAR-8): 1.27 µM; GI50 (NCI-H460): 1.8 µM; GI50 (SN12C): 1.21 µM; GI50 (UO-31): 1.19 µM; GI50 (DU-145): 0.72 µM; GI50 (SK-MEL-5): 1.34 µM; GI50 (HCT-15): 0.74 µM; GI50 (SF-539): 1.65 µM |
| COc1cc(C(=O)/C=C/c2cccnc2Nc2ccc(Cl)cc2)cc(OC)c1OC [6ax, (E)-3-(2-(4-Chlorophenylamino)pyridin-3-yl)-1-(3,4,5-trimethoxyphenyl)prop-2-en-1-one] | 1.44 | 1.5 | 1.72 | 2.01 | 0.37 | 1.02 | 1.02 | 1.93 | 1.42 | 1.27 | 1.74 | 1.4 | 1.54 | 1.46 | 1.91 | 3.08 | 1.25 | 1.75 | 1.72 | 1.51 | GI50 (A549/ATCC): 1.63 µM; GI50 (TK-10): 1.87 µM; GI50 (OVCAR-8): 1.63 µM; GI50 (NCI-H460): 1.92 µM; GI50 (SN12C): 1.46 µM; GI50 (UO-31): 1.32 µM; GI50 (DU-145): 1.63 µM; GI50 (SK-MEL-5): 1.5 µM; GI50 (HCT-15): 1.49 µM; GI50 (SF-539): 1.71 µM |
| COc1ccc(Nc2ncccc2/C=C/C(=O)c2cc(OC)c(OC)c(OC)c2)cc1 [6h, (E)-3-(2-(4-Methoxyphenylamino)pyridin-3-yl)-1-(3,4,5-trimethoxyphenyl)prop-2-en-1-one] | 2.82 | 1.58 | 2.72 | 1.47 | 0.5 | 0.69 | 0.69 | 1.85 | 1.67 | 1.23 | 1.97 | 3.19 | 1.56 | 0.36 | 1.4 | 2.68 | 1.27 | 1.52 | 1.77 | 1.62 | GI50 (OVCAR-8): 1.56 µM; GI50 (NCI-H460): 2.01 µM; GI50 (SN12C): 1.56 µM; GI50 (UO-31): 1.12 µM; GI50 (DU-145): 1.59 µM; GI50 (SK-MEL-5): 1.39 µM; GI50 (HCT-15): 1.66 µM; GI50 (SF-539): 2.04 µM |
| COc1cc(Nc2ncccc2/C=C/C(=O)c2cc(OC)c(OC)c(OC)c2)cc(OC)c1OC [6v, (E)-1-(3,4,5-Trimethoxyphenyl)-3-(2-(3,4,5-trimethoxyphenylamino)pyridin-3-yl)prop-2-en-1-one] | 7.81 | 14.3 | 11.1 | 8 | 7.08 | 3.97 | 3.97 | 4.92 | 5.3 | 4.51 | 16.3 | 2.64 | 4.96 | 7.44 | 15.3 | 13.2 | 4.1 | 4.01 | 8.19 | 9.78 | GI50 (A549/ATCC): 4.21 µM; GI50 (TK-10): 1.55 µM; GI50 (OVCAR-8): 6.7 µM; GI50 (NCI-H460): 3.61 µM; GI50 (SN12C): 5.1 µM; GI50 (UO-31): 5.09 µM; GI50 (DU-145): 6.22 µM; GI50 (SK-MEL-5): 4.17 µM; GI50 (HCT-15): 5.02 µM; GI50 (SF-539): 12.2 µM |
| COc1ccc(C(=O)/C=C/c2cccnc2Nc2cc(OC)c(OC)c(OC)c2)cc1 [6z, (E)-1-(4-Methoxyphenyl)-3-(2-(3,4,5-trimethoxyphenylamino)pyridin-3-yl)prop-2-en-1-one] | 1.13 | 2.41 | 3.15 | 7.04 | 0.71 | 0.18 | 0.18 | 2.91 | 2.04 | 1.12 | 1.95 | 4.28 | 1.9 | 1.33 | 3.24 | 6.38 | 1.27 | 2.26 | 3.13 | 1.78 | GI50 (A549/ATCC): 2.15 µM; GI50 (TK-10): 2.06 µM; GI50 (OVCAR-8): 2.2 µM; GI50 (NCI-H460): 2.16 µM; GI50 (SN12C): 1.91 µM; GI50 (UO-31): 1.44 µM; GI50 (DU-145): 2.59 µM; GI50 (SK-MEL-5): 2.41 µM; GI50 (HCT-15): 0.91 µM; GI50 (SF-539): 1.81 µM |
| COc1cc(/C=C/C(=O)c2cccnc2Nc2ccc(F)cc2)cc(OC)c1OC [7f, (E)-1-(2-(4-Fluorophenylamino)pyridin-3-yl)-3-(3,4,5-trimethoxyphenyl)prop-2-en-1-one] | 3.95 | 2.7 | 3.1 | 2.52 | 2.45 | 2.44 | 2.44 | 4.16 | 3.06 | 1.69 | 4.1 | 2.18 | 2.35 | 2.69 | 6.9 | 3.68 | 2.78 | 3.68 | 4.18 | 3.81 | GI50 (A549/ATCC): 2.66 µM; GI50 (TK-10): 3.52 µM; GI50 (OVCAR-8): 2.69 µM; GI50 (NCI-H460): 2.83 µM; GI50 (SN12C): 3.23 µM; GI50 (UO-31): 5.62 µM; GI50 (DU-145): 3.32 µM; GI50 (SK-MEL-5): 2.51 µM; GI50 (HCT-15): 2.27 µM; GI50 (SF-539): 2.85 µM |
